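Briefly, cells in 96-well plates were exposed to five compound concentrations for 48 h, and endpoints were estimated by linear interpolation. TGI denotes the concentration required for complete inhibition of growth.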 Residues, ends and D or L forms follow the SMILES beside them. *: point of attachment. Boc = CC(C)(C)OC(=O)*; OBn = c1ccc(CO*)cc1
Key:
Assay in all cases: NCI-60 cell line screen, 48 h
IGROV1 ovarian = test system: IGROV1 ovarian
T-47D breast = test system: T-47D breast
SF-539 CNS = test system: SF-539 CNS
MDA-MB-435 = test system: MDA-MB-435
NCI-H23 lung = test system: NCI-H23 lung
K-562 leukemia = test system: K-562 leukemia
MCF7 breast = test system: MCF7 breast
SNB-75 CNS = test system: SNB-75 CNS
MALME-3M melanoma = test system: MALME-3M melanoma
SK-MEL-5 melanoma = test system: SK-MEL-5 melanoma
HCT-116 colon = test system: HCT-116 colon
UO-31 renal = test system: UO-31 renal
SK-OV-3 ovarian = test system: SK-OV-3 ovarian
CAKI-1 renal = test system: CAKI-1 renal
SR leukemia = test system: SR leukemia
UACC-257 melanoma = test system: UACC-257 melanoma
HL-60(TB) leukemia = test system: HL-60(TB) leukemia
KM12 colon = test system: KM12 colon
A498 renal = test system: A498 renal

Compound	TGI (IGROV1 ovarian) [µM]	TGI (T-47D breast) [µM]	TGI (SF-539 CNS) [µM]	TGI (MDA-MB-435) [µM]	TGI (NCI-H23 lung) [µM]	TGI (K-562 leukemia) [µM]	TGI (MCF7 breast) [µM]	TGI (SNB-75 CNS) [µM]	TGI (MALME-3M melanoma) [µM]	TGI (SK-MEL-5 melanoma) [µM]	TGI (HCT-116 colon) [µM]	TGI (UO-31 renal) [µM]	TGI (SK-OV-3 ovarian) [µM]	TGI (CAKI-1 renal) [µM]	TGI (SR leukemia) [µM]	TGI (UACC-257 melanoma) [µM]	TGI (HL-60(TB) leukemia) [µM]	TGI (KM12 colon) [µM]	TGI (A498 renal) [µM]
O=c1oc2ccc(Cl)cc2cc1-c1cn2ccccc2n1	> 100	> 100	> 100	> 100	46.8	> 100	99.2	> 41.3	23.5	> 100	45.2	19.2	6.52	45.9	> 100	> 100	> 100	> 100	
O=C(O)C1(Cc2ccc3c(c2)CCC3)Cc2ccccc2C1	> 100	> 100	> 100	> 100	> 100	> 100	> 100	> 100	> 100	> 100	> 100	> 100	> 100		> 100	> 100	> 100	> 100	> 100
SCc1ccc(CS)s1	> 100	> 100	> 100	> 100	> 100	> 100	> 100	> 100		> 100	> 100	> 100	> 100		> 100	> 100	> 100	> 100	
COc1ccccc1N=N/C(=N\NC(=O)c1ccc(C)cc1)c1ccc(N(CCC#N)CCC#N)cc1C	> 100	> 100	> 100	> 100	94.4	> 100	> 100	> 100	77.4	53.6	> 100	> 100	> 100	> 100	> 100	> 100		> 100	> 100
C=C(C)C(O)C(O)C[C@@H](C)C1CC[C@]23C[C@]12CCC1[C@@]2(C)CCC(OC(C)=O)C(C)(C)C2CC(OC2OC(CO)C(O)C(O)C2O)[C@]13C (stereo partly specified)	28.8	31.6	27.8	31.7	41.6	46.6	31	43	32.3	33.1	29.5	> 100	45.7	> 100	36.3	31.4	36.7	31.8	
O=C(CCCl)NNC1=NCCCCN1	> 100	> 100	> 100	> 100	> 100	> 100	> 100	> 100	> 100	> 100	> 100	> 100	> 100		> 100	> 100	> 100	> 100	
COc1ccc(/C=C2\Sc3nnc(CNc4ccc(Cl)cc4)n3N=C2c2cc(F)c(Cl)cc2Cl)cc1OC	> 100	> 100	> 100	> 100	> 100	> 100	> 100			> 100	> 100	> 100	> 100	80.5	> 100	> 100	> 100	> 100	> 100
C=C1C(=O)OC2CC(=C)C3CC=C(C)C3CC12 (stereo unspecified)	55.5	37.1	> 100	32.6		24.4	55.3			> 100	50.4	29.3	80	28.2	55.6	27.5	87.1	> 100	> 100
O=C(NCCN1CCCCC1)c1ccc(I)cc1	> 100	> 100	> 100	> 100	> 100	> 100	> 100	> 100	> 100	> 100	> 100	> 100	> 100	> 100	> 100	> 100		> 100	69.3
CCOC(=O)/C=C/[C@H](O)[C@@H](O)/C=C/C(=O)OCC	> 100	> 100	> 100	> 100	> 100	27.7	79.7	> 100	46.8	> 100	43	> 100	> 100	45.8	40	> 100		47.6	> 100
NC(=O)C(=O)C(c1ccccc1)S(=O)(=O)Cc1ccccc1 (stereo unspecified)	> 100	> 100	> 100	> 100	> 100	> 100	> 100	> 100		> 100	> 100	> 100	> 100	> 100	> 100	> 100		> 100	
CC(C)(C)OC/C=C1\C(=O)O[C@H]2C[C@@H](O[Si](C)(C)C(C)(C)C)C[C@@H]12	> 100	> 100		> 100	> 100	> 100	> 100	> 100	> 100	> 100	> 100	> 100	> 100	> 100	> 100	> 100		> 100	> 100
O=C(O)CNn1c(SCC(=O)O)nnc(/C=C/c2c(O)ccc3ccccc23)c1=O	0.962	> 100	> 100	> 100	52.6	62.7	> 100		> 100	42.8	> 100	> 100	> 100	> 100	60	> 100	25.9	> 100	> 100
COC(=O)[C@@H](Cc1ccccc1)N1O[C@]12CCCC[C@@H]2NC(=O)OC(C)(C)C (stereo partly specified)	27.8	62.4	33.3	54.5	51.8	> 100	28.5	77.3	56	35.8	> 100	27.5		90.4	74.4	> 100		> 100	> 100
Fc1cccc(Cl)c1C1SCc2nc3cc4ccccc4cc3n21 (stereo unspecified)	> 100	> 100	> 100	> 100	> 100	> 100	> 100		> 100		> 100		> 100	> 100	> 100	> 100		> 100	
COc1ccc(N=Nc2c(C)c(C#N)c(=S)n(C3OC(CO)C(O)C(O)C3O)c2C)cc1 (stereo unspecified)	> 100	79.8	> 100	> 100	> 100	> 100	> 100	> 100		35.1	> 100	> 100	> 100	> 100	87.1	> 100	> 100	> 100	
CN(C)C=NCCN1CCOCC1	> 100	> 100	> 100	> 100	> 100	> 100	> 100	> 100	> 100	> 100	> 100	> 100	> 100		> 100	> 100	> 100		> 100
CC(C)C(C/C=C1/CC(CO)(COC(=O)c2ccccc2)OC1=O)C(C)C (stereo unspecified)	38.2	31.2	16.1	95.5	34.7	48	39	20.3	25.1	21.3	29.7	31.5	> 100	27.8	> 100	62.4		31.7	39.7
CC(C)CC(NC(=O)OC(C)(C)C)C(=O)N1CCCC1C(=O)OCc1ccccc1 (stereo not drawn) (Boc-Leu-Pro-OBn; configuration not given here)	> 100	> 100	> 100	> 100	> 100	> 100	> 100	> 100	> 100	> 100	> 100	> 100	> 100	> 100	> 100	> 100		> 100	> 100
Cc1ccc(N=NN(C)C(=O)C(C)N)cc1 (stereo unspecified)	> 100	> 100	> 100	> 100	> 100	> 100	> 100	> 100	> 100	> 100	> 100	> 100		> 100	> 100	> 100	> 100	> 100	
Cc1ccc(/C=C2\CCCC(CN(C)C)C2=O)cc1 (stereo unspecified)	4.15	3.25	6.61	3.74	4.97	> 100	1.92	20.3	3.77	12.5	3.1	3.12	26.4	2.88		3.99	> 100	3.57	27.4
